Like-named read-outs stand apart in the source and are kept apart here.
What was measured:
Experiment in all cases: Kinase selectivity, P33-radiolabeled assay
Format in all cases: biochemical
Conditions in all cases: 10 μM ATP
CDK3/cyclin E = biological target: T1, CDK3/cyclin E (Homo sapiens, UniProt Q00526)
T1 construct: purchased Reaction Biology Corp
Method in brief: (§1)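 Activity relative to DMSO controls (%) was measured for compound at 10 μM. Assays ran at 10 μM ATP, in duplicate.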

EPHB3 = biological target: T2, EPHB3 (Homo sapiens, UniProt P54753)
T2 construct: purchased Reaction Biology Corp
T2 sequence (P54753 34-998): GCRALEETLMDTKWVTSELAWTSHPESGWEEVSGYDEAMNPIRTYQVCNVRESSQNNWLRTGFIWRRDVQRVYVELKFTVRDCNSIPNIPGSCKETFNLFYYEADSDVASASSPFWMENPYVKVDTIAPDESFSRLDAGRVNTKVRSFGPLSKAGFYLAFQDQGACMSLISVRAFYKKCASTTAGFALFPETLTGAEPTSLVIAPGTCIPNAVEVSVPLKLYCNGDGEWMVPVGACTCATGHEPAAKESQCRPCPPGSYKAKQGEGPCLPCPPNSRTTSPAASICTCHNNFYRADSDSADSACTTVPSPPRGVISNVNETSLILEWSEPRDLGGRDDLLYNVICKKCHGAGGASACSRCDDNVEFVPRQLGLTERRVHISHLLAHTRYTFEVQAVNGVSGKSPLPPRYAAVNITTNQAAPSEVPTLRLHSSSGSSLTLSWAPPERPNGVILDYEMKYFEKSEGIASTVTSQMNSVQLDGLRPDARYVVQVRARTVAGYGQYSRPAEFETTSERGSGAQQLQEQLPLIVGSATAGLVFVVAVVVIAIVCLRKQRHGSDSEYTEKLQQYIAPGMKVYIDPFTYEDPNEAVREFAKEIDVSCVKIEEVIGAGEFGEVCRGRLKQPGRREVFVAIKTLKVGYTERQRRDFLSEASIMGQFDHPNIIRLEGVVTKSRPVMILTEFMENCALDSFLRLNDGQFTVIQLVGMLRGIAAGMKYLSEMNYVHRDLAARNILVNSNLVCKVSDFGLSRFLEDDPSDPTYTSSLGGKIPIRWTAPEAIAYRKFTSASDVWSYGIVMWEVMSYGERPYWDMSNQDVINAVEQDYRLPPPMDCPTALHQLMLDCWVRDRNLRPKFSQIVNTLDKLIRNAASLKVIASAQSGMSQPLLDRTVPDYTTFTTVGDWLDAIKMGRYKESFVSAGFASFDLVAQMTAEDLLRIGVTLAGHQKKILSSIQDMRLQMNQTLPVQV
Method in brief: as §1

HPK1/MAP4K1 = biological target: T3, HPK1/MAP4K1 (Homo sapiens, UniProt Q92918)
T3 construct: purchased Reaction Biology Corp
T3 sequence (Q92918 whole entry): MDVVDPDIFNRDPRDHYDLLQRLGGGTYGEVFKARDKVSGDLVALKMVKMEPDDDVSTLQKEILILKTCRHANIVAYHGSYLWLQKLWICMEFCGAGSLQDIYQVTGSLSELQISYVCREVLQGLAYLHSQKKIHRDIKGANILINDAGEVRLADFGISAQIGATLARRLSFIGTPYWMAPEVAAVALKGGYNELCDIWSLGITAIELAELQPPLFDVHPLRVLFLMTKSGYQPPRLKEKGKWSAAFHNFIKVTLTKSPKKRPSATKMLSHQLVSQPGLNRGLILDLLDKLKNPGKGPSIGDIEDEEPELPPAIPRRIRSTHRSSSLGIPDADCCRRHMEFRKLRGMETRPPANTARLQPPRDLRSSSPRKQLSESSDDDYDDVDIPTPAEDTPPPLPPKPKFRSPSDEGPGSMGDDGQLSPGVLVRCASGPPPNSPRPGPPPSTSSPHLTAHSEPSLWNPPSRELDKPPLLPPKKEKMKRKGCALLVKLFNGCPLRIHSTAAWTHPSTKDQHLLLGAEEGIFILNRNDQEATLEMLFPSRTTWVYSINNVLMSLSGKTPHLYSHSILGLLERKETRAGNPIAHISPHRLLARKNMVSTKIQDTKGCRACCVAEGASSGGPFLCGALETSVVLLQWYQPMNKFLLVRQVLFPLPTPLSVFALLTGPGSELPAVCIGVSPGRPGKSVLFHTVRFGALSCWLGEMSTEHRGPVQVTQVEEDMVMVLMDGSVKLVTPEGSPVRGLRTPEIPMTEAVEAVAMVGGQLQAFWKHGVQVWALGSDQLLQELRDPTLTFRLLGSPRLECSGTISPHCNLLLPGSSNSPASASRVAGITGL
Method in brief: as §1

JNK1 = biological target: T4, JNK1 (Homo sapiens, UniProt P45983)
T4 construct: purchased Reaction Biology Corp
T4 sequence (P45983 whole entry): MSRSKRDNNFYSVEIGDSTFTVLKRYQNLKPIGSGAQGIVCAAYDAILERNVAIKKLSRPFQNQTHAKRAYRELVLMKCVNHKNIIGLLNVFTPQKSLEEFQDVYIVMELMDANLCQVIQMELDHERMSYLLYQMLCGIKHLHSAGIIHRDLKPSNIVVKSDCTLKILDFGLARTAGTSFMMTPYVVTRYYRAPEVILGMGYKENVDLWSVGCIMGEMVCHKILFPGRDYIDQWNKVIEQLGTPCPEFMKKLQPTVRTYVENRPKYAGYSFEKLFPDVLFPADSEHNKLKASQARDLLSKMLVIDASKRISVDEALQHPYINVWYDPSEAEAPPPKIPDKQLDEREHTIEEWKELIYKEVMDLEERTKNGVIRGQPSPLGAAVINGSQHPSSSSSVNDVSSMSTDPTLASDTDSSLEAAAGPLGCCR
Method in brief: as §1

MKK4 = biological target: T5, MKK4 (Homo sapiens, UniProt P45985)
T5 construct: purchased Reaction Biology Corp
T5 sequence (P45985 1-399): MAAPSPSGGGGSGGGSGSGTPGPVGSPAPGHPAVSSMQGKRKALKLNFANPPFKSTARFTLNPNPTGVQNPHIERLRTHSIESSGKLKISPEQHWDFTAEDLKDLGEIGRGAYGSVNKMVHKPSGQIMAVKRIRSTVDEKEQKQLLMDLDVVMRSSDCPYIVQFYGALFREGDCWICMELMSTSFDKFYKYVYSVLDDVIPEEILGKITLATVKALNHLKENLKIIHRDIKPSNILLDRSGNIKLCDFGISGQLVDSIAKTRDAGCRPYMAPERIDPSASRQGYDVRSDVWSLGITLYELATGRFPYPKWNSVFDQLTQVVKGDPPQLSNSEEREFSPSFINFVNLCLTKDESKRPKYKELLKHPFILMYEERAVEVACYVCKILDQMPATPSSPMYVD
Method in brief: as §1

P38g = biological target: T6, P38g (Homo sapiens, UniProt P53778)
T6 construct: purchased Reaction Biology Corp
T6 sequence (P53778 1-367): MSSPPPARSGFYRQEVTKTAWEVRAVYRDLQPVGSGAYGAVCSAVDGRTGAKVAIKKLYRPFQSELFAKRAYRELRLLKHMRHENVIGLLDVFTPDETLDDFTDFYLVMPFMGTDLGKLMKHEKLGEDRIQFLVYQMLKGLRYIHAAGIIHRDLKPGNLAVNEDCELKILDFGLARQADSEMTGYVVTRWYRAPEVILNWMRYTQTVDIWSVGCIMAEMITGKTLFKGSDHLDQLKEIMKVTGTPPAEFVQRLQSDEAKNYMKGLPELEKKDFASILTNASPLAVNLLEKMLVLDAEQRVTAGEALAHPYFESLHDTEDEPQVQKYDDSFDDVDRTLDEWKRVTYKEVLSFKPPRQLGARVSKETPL
Method in brief: as §1

RIPK3 = biological target: T7, RIPK3 (Homo sapiens, UniProt Q9Y572)
T7 construct: purchased Reaction Biology Corp
T7 sequence (Q9Y572 whole entry): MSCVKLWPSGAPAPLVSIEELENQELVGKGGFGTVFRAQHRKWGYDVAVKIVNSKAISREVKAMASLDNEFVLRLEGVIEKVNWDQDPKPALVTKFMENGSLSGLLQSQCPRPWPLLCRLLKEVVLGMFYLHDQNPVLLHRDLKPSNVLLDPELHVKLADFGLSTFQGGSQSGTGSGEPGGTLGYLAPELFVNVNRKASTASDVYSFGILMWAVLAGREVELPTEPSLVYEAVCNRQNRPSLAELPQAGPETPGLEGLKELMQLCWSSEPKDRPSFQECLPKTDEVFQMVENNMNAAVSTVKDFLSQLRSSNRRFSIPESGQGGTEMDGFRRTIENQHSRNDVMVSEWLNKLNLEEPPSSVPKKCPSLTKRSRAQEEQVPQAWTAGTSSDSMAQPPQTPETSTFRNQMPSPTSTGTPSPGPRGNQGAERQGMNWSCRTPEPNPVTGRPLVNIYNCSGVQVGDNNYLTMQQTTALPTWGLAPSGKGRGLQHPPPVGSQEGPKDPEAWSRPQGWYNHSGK
Method in brief: as §1

[1] = read-out: % Enzyme Activity (relative to DMSO controls) AVG
[2] = read-out: % Enzyme Activity (relative to DMSO controls) Data 1
[3] = read-out: % Enzyme Activity (relative to DMSO controls) Data 2

T1 sequence (Q00526 whole entry): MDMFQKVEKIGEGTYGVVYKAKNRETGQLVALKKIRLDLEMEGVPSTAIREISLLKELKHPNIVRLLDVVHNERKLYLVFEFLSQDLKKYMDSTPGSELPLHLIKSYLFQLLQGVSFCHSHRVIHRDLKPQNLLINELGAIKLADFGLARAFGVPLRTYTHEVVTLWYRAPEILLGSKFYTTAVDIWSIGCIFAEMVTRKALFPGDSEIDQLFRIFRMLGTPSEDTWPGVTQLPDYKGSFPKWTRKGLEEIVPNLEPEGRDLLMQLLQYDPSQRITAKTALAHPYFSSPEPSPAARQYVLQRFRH
T1 sequence (P24864 whole entry partner): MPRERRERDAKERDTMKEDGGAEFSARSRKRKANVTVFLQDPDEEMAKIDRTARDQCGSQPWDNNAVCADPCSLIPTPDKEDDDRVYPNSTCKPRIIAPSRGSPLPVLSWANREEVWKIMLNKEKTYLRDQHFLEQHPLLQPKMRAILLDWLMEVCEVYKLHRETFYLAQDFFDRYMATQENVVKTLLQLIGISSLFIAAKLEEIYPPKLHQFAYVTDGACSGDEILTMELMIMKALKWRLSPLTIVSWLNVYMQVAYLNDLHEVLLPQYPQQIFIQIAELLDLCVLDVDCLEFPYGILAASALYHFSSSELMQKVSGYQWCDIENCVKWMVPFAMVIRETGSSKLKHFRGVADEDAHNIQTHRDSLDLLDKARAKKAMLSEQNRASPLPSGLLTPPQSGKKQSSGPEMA

With CC(C)(C)C(=O)N1N=CC[C@H]1c1ccccc1 [GSK′963] the remaining activity at 10 µM (CDK3/cyclin E; [1]) was 106%, the remaining activity at 10 µM (CDK3/cyclin E; [2]) was 105% and the remaining activity at 10 µM (CDK3/cyclin E; [3]) was 107%. It also gave a remaining activity at 10 µM (EPHB3; [1]) of 105%, a remaining activity at 10 µM (EPHB3; [2]) of 103% and a remaining activity at 10 µM (EPHB3; [3]) of 107%. The remaining activity at 10 µM (HPK1/MAP4K1; [1]) was 100%, the remaining activity at 10 µM (HPK1/MAP4K1; [2]) was 100% and the remaining activity at 10 µM (HPK1/MAP4K1; [3]) was 101%. For the same compound, the remaining activity at 10 µM (JNK1; [1]) was 97.1%, the remaining activity at 10 µM (JNK1; [2]) was 97.3% and the remaining activity at 10 µM (JNK1; [3]) was 97%. The remaining activity at 10 µM (MKK4; [1]) was 105%, the remaining activity at 10 µM (MKK4; [2]) was 105% and the remaining activity at 10 µM (MKK4; [3]) was 105%. It also gave a remaining activity at 10 µM (P38g; [1]) of 101%, a remaining activity at 10 µM (P38g; [2]) of 103% and a remaining activity at 10 µM (P38g; [3]) of 98.7%. It also gave a remaining activity at 10 µM (RIPK3; [1]) of 99.3%, a remaining activity at 10 µM (RIPK3; [2]) of 100% and a remaining activity at 10 µM (RIPK3; [3]) of 98.7%.
